Key:
rice, transplanted = test: Test F flood (paddy) test; type: in vivo, Oryza sativa cv. Japonica—M202; settings: 21 d, scale 0-100
Description: Three plastic pots (ca. 16-cm diameter) per rate were partially filled with sterilized Tama silt loam soil comprising a 35:50:15 ratio of sand, silt and clay and 2.6% organic matter. Separate plantings for each of the three pots were as follows. Seeds from the U.S. of monochoria (Monochoria vaginalis), sedge, umbrella (small-flower umbrella sedge, Cyperus difformis), bulrush, […] bulrush, Scirpus juncoides), and […] (purple […] coccinea), were planted into one 16-cm pot for each rate. Seeds from the U.S. of flatsedge, rice (rice flatsedge, Cyperus iria), sprangletop, Brdd. (bearded sprangletop, Leptochloa fascicularis), one stand of 9 or 10 water seeded rice seedlings (Rice, W.S. Jap, Oryza sativa cv. 'Japonica-[…]' or Rice, W.S. Ind, 'Indica'), and two stands of 3 or 4 seedlings of rice, transplanted (transplanted rice, Oryza sativa cv. 'Japonica-[…]') were planted into one 16-cm pot for each rate. Seeds from the U.S. of barnyardgrass (Echinochloa crus-galli), […] (common […], Alisma plantago-aquatica), and watergrass, late (late watergrass, Echinochloa oryzicola) were planted into one 16-cm pot for each rate. Plantings were sequential so that crop and weed species were at the 2.0 to 2.5-leaf stage at time of treatment. Potted plants were grown in a greenhouse with day/night temperature settings of 30/27° C., and supplemental balanced lighting was provided to maintain a 16-h photoperiod. Test pots were maintained in the greenhouse until test completion. At time of treatment, test pots were flooded to 3 cm above the soil surface, treated by application of test compounds directly to the paddy water, and then maintained at that water depth for the duration of the test. Effects of treatments on rice and weeds were visually evaluated by comparison to untreated controls after 21 d. Plant response ratings, summarized in Table F, are based on a scale of 0 to 100 where 0 is no effect and 100 is complete control. A dash (-) response means no test result.

sprangletop, Brdd. = test: Test F flood (paddy) test; type: in vivo, Leptochloa fascicularis; settings: 21 d, scale 0-100
In short: (§1)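 Pots of sterilized Tama silt loam (35:50:15 sand:silt:clay, 2.6% organic matter) were sown so crop and weeds reached the 2.0–2.5-leaf stage; greenhouse 30/27 °C, 16-h photoperiod. Pots flooded to 3 cm, compound applied into paddy water, depth maintained. Visual rating vs untreated controls after 21 d, 0–100 scale.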

monochoria = test: Test F flood (paddy) test; type: in vivo, Monochoria vaginalis; settings: 21 d, scale 0-100
In short: as §1

barley, spring = test: Test D pre-/postemergence herbicide test; type: in vivo, Hordeum vulgare; settings: Preemergence; for Plant response rating, Barley, Spring: scale 0 to 100 (0 no effect, 100 complete control)
In short: (§2)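 Test chemicals, formulated in a non-phytotoxic solvent mixture with surfactant, are sprayed preemergence onto seeds in silt loam and postemergence onto plants of 2–18 cm. Plants are held in a controlled growth environment for 7 to 21 days, then rated visually versus controls (0–100).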

barley, winter = test: Test D pre-/postemergence herbicide test; type: in vivo, Hordeum vulgare; settings: Preemergence; for Plant response rating, Barley, Winter: scale 0 to 100 (0 no effect, 100 complete control)
In short: as §2

lambsquarters = test: Test D pre-/postemergence herbicide test; type: in vivo, Chenopodium album; settings: Preemergence; for Plant response rating, Lambsquarters: scale 0 to 100 (0 no effect, 100 complete control)
In short: as §2

**Q.** Which “Plant response rating, Rice, Transplanted” value (“Plant response rating, Rice” below) (rice, transplanted; 62 g ai/ha) does the source give for `CN1CC(c2ccc(F)c(F)c2)C(C(=O)Nc2cccc(F)c2F)C1=O` (stereo not drawn) [Compound 303] here?
**A.** The value was 0.

**Q.** And the “Plant response rating, Rice” value (rice, transplanted; 125 g ai/ha)?
**A.** The value was 0.

**Q.** What about the “Plant response rating, Rice” value (rice, transplanted; 250 g ai/ha) of the same compound?
**A.** Its value is 15.

**Q.** What about the “Plant response rating, Rice” value (rice, transplanted; 500 g ai/ha) of the same compound?
**A.** The value was 30.

**Q.** And the “Plant response rating, Sprangletop, Brdd.” value (sprangletop, Brdd.; 62 g ai/ha)?
**A.** The value was 70.

**Q.** What about the “Plant response rating, Sprangletop, Brdd.” value (sprangletop, Brdd.; 125 g ai/ha) of the same compound?
**A.** The value was 80.

**Q.** What about the “Plant response rating, Sprangletop, Brdd.” value (sprangletop, Brdd.; 250 g ai/ha) of the same compound?
**A.** Its value is 85.

**Q.** What about the “Plant response rating, Sprangletop, Brdd.” value (sprangletop, Brdd.; 500 g ai/ha) of the same compound?
**A.** Its value is 90.

**Q.** And the “Plant response rating, Monochoria” value (monochoria; 62 g ai/ha)?
**A.** Its value is 100.

**Q.** And the “Plant response rating, Monochoria” value (monochoria; 125 g ai/ha)?
**A.** Its value is 100.

**Q.** And the “Plant response rating, Monochoria” value (monochoria; 250 g ai/ha)?
**A.** The value was 100.

**Q.** And the “Plant response rating, Monochoria” value (monochoria; 500 g ai/ha)?
**A.** The value was 100.

**Q.** How did the “Plant response rating, Rice” value (rice, transplanted; 64 g ai/ha) turn out when `O=C1NC[C@H](c2cccc(C(F)(F)F)c2)[C@H]1C(=O)Nc1cccc(F)c1F` [Compound 206] was run?
**A.** The value was 0.

**Q.** What about the “Plant response rating, Rice” value (rice, transplanted; 125 g ai/ha) of the same compound?
**A.** The value was 0.

**Q.** What about the “Plant response rating, Rice” value (rice, transplanted; 250 g ai/ha) of the same compound?
**A.** The value was 10.

**Q.** And the “Plant response rating, Rice” value (rice, transplanted; 500 g ai/ha)?
**A.** Its value is 40.

**Q.** And the “Plant response rating, Sprangletop, Brdd.” value (sprangletop, Brdd.; 64 g ai/ha)?
**A.** Its value is 90.

**Q.** And the “Plant response rating, Sprangletop, Brdd.” value (sprangletop, Brdd.; 125 g ai/ha)?
**A.** Its value is 95.

**Q.** What about the “Plant response rating, Sprangletop, Brdd.” value (sprangletop, Brdd.; 250 g ai/ha) of the same compound?
**A.** Its value is 100.

**Q.** What about the “Plant response rating, Sprangletop, Brdd.” value (sprangletop, Brdd.; 500 g ai/ha) of the same compound?
**A.** Its value is 100.

**Q.** And the “Plant response rating, Barley, Spring” value (barley, spring; 62 g ai/ha)?
**A.** Its value is 35.

**Q.** And the “Plant response rating, Barley, Spring” value (barley, spring; 125 g ai/ha)?
**A.** Its value is 40.

**Q.** What about the “Plant response rating, Barley, Spring” value (barley, spring; 31 g ai/ha) of the same compound?
**A.** Its value is 5.

**Q.** And the Plant response rating (barley, spring; 250 g ai/ha, Barley, Spring, scale 0 to 100)?
**A.** Its Plant response rating is 55.

**Q.** What about the “Plant response rating, Barley, Winter” value (barley, winter; 62 g ai/ha) of the same compound?
**A.** The value was 30.

**Q.** And the “Plant response rating, Barley, Winter” value (barley, winter; 125 g ai/ha)?
**A.** The value was 40.

**Q.** What about the “Plant response rating, Barley, Winter” value (barley, winter; 31 g ai/ha) of the same compound?
**A.** Its value is 15.

**Q.** What about the Plant response rating (barley, winter; 250 g ai/ha, Barley, Winter, scale 0 to 100) of the same compound?
**A.** Its Plant response rating is 65.

**Q.** What about the “Plant response rating, Lambsquarters” value (lambsquarters; 62 g ai/ha) of the same compound?
**A.** Its value is 80.

**Q.** What about the “Plant response rating, Lambsquarters” value (lambsquarters; 125 g ai/ha) of the same compound?
**A.** The value was 85.

**Q.** And the “Plant response rating, Lambsquarters” value (lambsquarters; 31 g ai/ha)?
**A.** The value was 50.

**Q.** And the Plant response rating (lambsquarters; 250 g ai/ha, Lambsquarters, scale 0 to 100)?
**A.** Its Plant response rating is 90.

**Q.** And the “Plant response rating, Monochoria” value (monochoria; 64 g ai/ha)?
**A.** The value was 80.

**Q.** What about the “Plant response rating, Monochoria” value (monochoria; 125 g ai/ha) of the same compound?
**A.** Its value is 90.

**Q.** What about the “Plant response rating, Monochoria” value (monochoria; 250 g ai/ha) of the same compound?
**A.** The value was 100.

**Q.** What about the “Plant response rating, Monochoria” value (monochoria; 500 g ai/ha) of the same compound?
**A.** Its value is 100.

**Q.** `O=C1NCC(c2ccc(F)c(F)c2)C1C(=O)Nc1cccc(F)c1F` (racemic) [Compound 101] was tested. Which “Plant response rating, Rice” value (rice, transplanted; 64 g ai/ha) did it give?
**A.** Its value is 0.

**Q.** And the “Plant response rating, Rice” value (rice, transplanted; 125 g ai/ha)?
**A.** The value was 0.

**Q.** And the “Plant response rating, Rice” value (rice, transplanted; 250 g ai/ha)?
**A.** Its value is 0.

**Q.** What about the “Plant response rating, Rice” value (rice, transplanted; 500 g ai/ha) of the same compound?
**A.** Its value is 0.

**Q.** What about the “Plant response rating, Sprangletop, Brdd.” value (sprangletop, Brdd.; 64 g ai/ha) of the same compound?
**A.** Its value is 75.

**Q.** And the “Plant response rating, Sprangletop, Brdd.” value (sprangletop, Brdd.; 125 g ai/ha)?
**A.** Its value is 85.

**Q.** What about the “Plant response rating, Sprangletop, Brdd.” value (sprangletop, Brdd.; 250 g ai/ha) of the same compound?
**A.** The value was 95.

**Q.** And the “Plant response rating, Sprangletop, Brdd.” value (sprangletop, Brdd.; 500 g ai/ha)?
**A.** The value was 95.

**Q.** What about the “Plant response rating, Monochoria” value (monochoria; 64 g ai/ha) of the same compound?
**A.** Its value is 75.

**Q.** And the “Plant response rating, Monochoria” value (monochoria; 125 g ai/ha)?
**A.** Its value is 100.

**Q.** And the “Plant response rating, Monochoria” value (monochoria; 250 g ai/ha)?
**A.** The value was 100.

**Q.** And the “Plant response rating, Monochoria” value (monochoria; 500 g ai/ha)?
**A.** The value was 100.

From US10294202B2, “Pyrrolidinones as herbicides” (FMC Corporation, priority 2013, dated 2019)
